According to US4900748A (priority 1988, dated 1990):
Like-named read-outs stand apart in the source and are kept apart here.

Assays:
[1] = target: Acetylcholinesterase (Cortex) (Homo sapiens, UniProt P22303); assay: biochemical
[2] = target: Acetylcholinesterase (Caudate) (Homo sapiens, UniProt P22303); assay: biochemical
[3] = target: Acetylcholinesterase (RBC) (Homo sapiens, UniProt P22303); assay: biochemical
[4] = tested on: nicotinic AChR; details: cited from earlier work
[5] = tested on: acetyl- and butyryl-cholinesterase; format: biochemical
[6] = tested on: acetylcholinesterase; format: biochemical; details: for IC50: read-out: IC50, antiacetylcholinesterase (approximate)
[7] = target: Butyrylcholinesterase (Cortex) (Homo sapiens, UniProt P06276); assay: biochemical
Chain of Butyrylcholinesterase (Cortex) (P06276 29-602): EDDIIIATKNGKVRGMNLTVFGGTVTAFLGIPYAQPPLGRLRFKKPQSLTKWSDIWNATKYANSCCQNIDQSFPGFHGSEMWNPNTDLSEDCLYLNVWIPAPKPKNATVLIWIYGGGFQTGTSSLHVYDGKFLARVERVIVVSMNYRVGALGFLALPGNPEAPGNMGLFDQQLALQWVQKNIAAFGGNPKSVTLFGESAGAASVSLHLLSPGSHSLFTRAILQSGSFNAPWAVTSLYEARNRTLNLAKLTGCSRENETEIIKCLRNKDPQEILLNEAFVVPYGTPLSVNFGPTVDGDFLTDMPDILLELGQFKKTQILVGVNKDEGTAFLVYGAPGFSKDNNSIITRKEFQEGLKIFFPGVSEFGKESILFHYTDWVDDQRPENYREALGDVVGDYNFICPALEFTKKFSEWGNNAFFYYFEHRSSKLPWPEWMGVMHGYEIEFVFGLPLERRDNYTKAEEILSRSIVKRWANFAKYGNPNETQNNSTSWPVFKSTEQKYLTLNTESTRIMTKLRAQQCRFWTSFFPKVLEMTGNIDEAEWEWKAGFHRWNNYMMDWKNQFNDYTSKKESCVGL

[8] = target: Butyrylcholinesterase (Plasma) (Homo sapiens, UniProt P06276); assay: biochemical
Chain of Butyrylcholinesterase (Plasma) (P06276 29-602): as above

[9] = target: Acetylcholinesterase (Eel) (Electrophorus electricus, UniProt O42275); assay: biochemical
Chain of Acetylcholinesterase (Eel) (O42275 24-633): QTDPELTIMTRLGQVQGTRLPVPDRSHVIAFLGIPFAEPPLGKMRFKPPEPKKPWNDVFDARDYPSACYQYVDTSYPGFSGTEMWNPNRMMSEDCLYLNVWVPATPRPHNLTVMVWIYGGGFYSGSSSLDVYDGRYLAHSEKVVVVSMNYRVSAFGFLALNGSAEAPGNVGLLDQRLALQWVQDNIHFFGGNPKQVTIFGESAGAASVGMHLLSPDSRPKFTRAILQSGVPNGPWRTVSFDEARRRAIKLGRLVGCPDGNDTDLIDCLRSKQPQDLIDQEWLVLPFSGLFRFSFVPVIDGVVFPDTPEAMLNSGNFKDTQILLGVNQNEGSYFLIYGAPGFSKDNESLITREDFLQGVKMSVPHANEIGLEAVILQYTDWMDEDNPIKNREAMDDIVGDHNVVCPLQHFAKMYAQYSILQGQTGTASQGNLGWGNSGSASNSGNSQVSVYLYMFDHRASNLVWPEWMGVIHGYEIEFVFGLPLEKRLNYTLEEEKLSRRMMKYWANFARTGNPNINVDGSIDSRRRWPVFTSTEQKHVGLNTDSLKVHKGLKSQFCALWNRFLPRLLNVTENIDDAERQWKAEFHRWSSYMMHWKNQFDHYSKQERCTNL

[10] = tested on: butyrylcholinesterase; format: biochemical
[11] = tested on: neuromuscular AChR; details: cited from earlier work
[12] = read-out: IC50 Butyrylcholinesterase Cortex
[13] = read-out: IC50 Butyrylcholinesterase Plasma
[14] = read-out: IC50 Acetylcholinesterase Eel
[15] = read-out: IC50 Acetylcholinesterase Cortex
[16] = read-out: IC50 Acetylcholinesterase Caudate
[17] = read-out: IC50 Acetylcholinesterase RBC

Chain of Acetylcholinesterase (Caudate) (P22303 32-614): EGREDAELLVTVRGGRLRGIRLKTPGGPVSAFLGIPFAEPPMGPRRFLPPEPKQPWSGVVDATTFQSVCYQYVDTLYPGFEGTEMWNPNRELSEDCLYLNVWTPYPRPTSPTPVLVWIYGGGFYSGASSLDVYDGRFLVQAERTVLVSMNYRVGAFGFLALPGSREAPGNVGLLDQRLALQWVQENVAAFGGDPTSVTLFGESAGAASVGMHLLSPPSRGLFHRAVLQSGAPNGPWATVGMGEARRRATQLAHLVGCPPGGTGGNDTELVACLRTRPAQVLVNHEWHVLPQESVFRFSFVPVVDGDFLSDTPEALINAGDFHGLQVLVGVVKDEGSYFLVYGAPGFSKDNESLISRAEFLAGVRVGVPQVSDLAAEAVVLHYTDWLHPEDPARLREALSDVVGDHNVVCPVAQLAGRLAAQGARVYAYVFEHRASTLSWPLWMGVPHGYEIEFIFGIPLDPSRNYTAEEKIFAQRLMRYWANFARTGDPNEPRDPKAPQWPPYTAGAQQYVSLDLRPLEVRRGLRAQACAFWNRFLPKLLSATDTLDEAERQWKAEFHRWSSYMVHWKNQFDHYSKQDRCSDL
Chain of Acetylcholinesterase (Cortex) (P22303 32-614): as above
Chain of Acetylcholinesterase (RBC) (P22303-2 with tags, fused parts or gaps limits assumed): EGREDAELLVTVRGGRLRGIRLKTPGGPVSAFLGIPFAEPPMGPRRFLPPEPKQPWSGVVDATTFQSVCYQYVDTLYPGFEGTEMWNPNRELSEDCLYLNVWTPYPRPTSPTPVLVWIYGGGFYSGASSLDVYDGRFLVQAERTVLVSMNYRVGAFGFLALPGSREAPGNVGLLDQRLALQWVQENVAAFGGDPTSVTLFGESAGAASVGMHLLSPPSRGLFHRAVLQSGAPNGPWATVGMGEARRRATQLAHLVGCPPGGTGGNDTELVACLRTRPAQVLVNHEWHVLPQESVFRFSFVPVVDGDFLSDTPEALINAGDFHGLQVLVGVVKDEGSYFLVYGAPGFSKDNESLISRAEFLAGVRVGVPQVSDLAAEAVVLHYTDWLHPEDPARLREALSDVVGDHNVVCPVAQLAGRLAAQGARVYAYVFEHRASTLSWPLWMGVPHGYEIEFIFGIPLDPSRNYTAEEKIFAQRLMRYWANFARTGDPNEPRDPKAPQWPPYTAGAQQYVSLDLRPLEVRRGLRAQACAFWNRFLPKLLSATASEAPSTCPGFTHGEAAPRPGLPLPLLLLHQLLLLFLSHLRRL

## CNC(=O)Oc1ccc2c(c1)[C@]1(C)CCN(CCc3ccccc3)[C@@H]1N2C [YU-112, N--phenylethyl physostigmine]
[1]
  IC50: 0.155 ± 0.028 µM
[2]
  IC50: 0.191 ± 0.056 µM
[3]
  IC50: 0.213 ± 0.038 µM

## c1ccc(C2(N3CCCCC3)CCCCC2)cc1 [phencyclidine]
[4]
  modification of AChR activation: modify noncompetitively the activation of the AChR

## CNC(=O)Oc1ccc2c(c1)[C@]1(C)CCN[C@@H]1N2C [YU-96, N--norphysostigmine]
[5]
  specificity acetyl- versus butyryl-cholinesterase: equipotent versus both acetyl- and butyryl-cholinesterase
[6]
  antiacetylcholinesterase potency in words: as potent against acetylcholinesterase as physostigmine itself

## CN1CC[C@@]2(C)c3cc(OC(=O)NCc4ccccc4)ccc3N(C)[C@@H]12 [YU-69-1, eseroline benzylcarbamate]
[1]
  IC50: 0.024 ± 0.005 µM
[7]
  IC50: 0.02 ± 0.011 µM
[2]
  IC50: 0.027 ± 0.01 µM
[3]
  IC50: 0.026 ± 0.008 µM
[8]
  IC50: 0.0027 ± 0.0016 µM
[9]
  IC50: 0.46 ± 0.08 µM

## CCCCNC(=O)Oc1ccc2c(c1)[C@]1(C)CCN(C)[C@@H]1N2C [YU-120, butylcabamoyl eseroline]
[1]
  IC50: 0.0208 ± 0.0037 µM
[7]
  IC50: 0.016 ± 0.0044 µM
[2]
  IC50: 0.0203 ± 0.0068 µM
[3]
  IC50: 0.0176 ± 0.0091 µM
[8]
  IC50: 0.00413 ± 0.00125 µM
[9]
  IC50: 0.152 ± 0.009 µM
[5]
  effect of shortening the side chain on potency against acetyl- or butyryl-cholinesterase: does not alter the potency of the compound against either acetyl- or butyryl-cholinesterase

## CN1CC[C@@]2(C)c3cc(OC(=O)Nc4ccc(Cl)cc4)ccc3N(C)[C@@H]12 [YU-116, chlorophenyl carbamoyleseroline]
[1]
  IC50: 0.417 ± 0.088 µM
[7]
  IC50: 4.46 ± 1.29 µM
[2]
  IC50: 0.448 ± 0.029 µM
[3]
  IC50: 0.654 ± 0.032 µM
[8]
  IC50: 4 ± 0.052 µM
[9]
  IC50: 1.8 ± 0.085 µM
[5]
  specificity acetyl- versus butyryl-cholinesterase: relatively specific for acetyl- rather than butyryl-cholinesterase
[6]
  antiacetylcholinesterase potency in words: much less against acetylcholinesterase
  reduction of antiacetylcholinesterase potency: approximately 10 fold
  IC50: ~0.5 µM

## Ethoprop [reference compound]
[7]; [12]
  IC50: 0.21 µM
[8]; [13]
  IC50: 0.3 µM
[9]; [14]
  IC50: 120 µM

## CN1CC[C@@]2(C)c3cc(OC(=O)Nc4ccccc4)ccc3N(C)[C@@H]12 [YU-79, eseroline phenylcarbamate]
[1]; [15]
  IC50: 0.036 ± 0.003 µM
[7]; [12]
  IC50: 2.5 µM
[2]; [16]
  IC50: 0.021 ± 0.001 µM
[3]; [17]
  IC50: 0.024 ± 0.006 µM
[8]; [13]
  IC50: 1.3 µM
[9]; [14]
  IC50: 0.35 ± 0.09 µM
[5]
  specificity acetyl- versus butyryl-cholinesterase: relatively specific for acetyl- rather than butyryl-cholinesterase
[6]
  IC50: ~0.03 µM

## C=CC[N+](C)(C)c1ccc(CCC(=O)CCc2ccc([N+](C)(C)CC=C)cc2)cc1 [BW284c51, reference compound]
[9]
  IC50: 0.0073 µM

## COc1ccc(NC(=O)Oc2ccc3c(c2)[C@]2(C)CCN(C)[C@@H]2N3C)cc1 [YU-114, methoxyphenyl carbamoyleseroline]
[7]
  IC50: 0.224 ± 0.047 µM
[8]
  IC50: 0.0276 ± 0.0018 µM
[9]
  IC50: 1.68 ± 0.38 µM
[10]
  increase of antibutyrylcholinesterase potency: ten-fold
[5]
  specificity acetyl- versus butyryl-cholinesterase: approximately equally potent against both enzymes
[6]
  reduction of antiacetylcholinesterase potency: approximately 10 fold

## CN1CC[C@]2(C)c3cc(O)ccc3N(C)[C@H]12 [(+)eseroline, reference compound]
[7]
  IC50: > 10 µM
[2]
  IC50: > 10 µM
[3]
  IC50: > 10 µM
[8]
  IC50: > 10 µM
[9]
  IC50: > 10 µM

## CN1CC[C@@]2(C)c3cc(O)ccc3N(C)[C@@H]12 [(-)eseroline, (-)-eseroline, reference compound]
[7]
  IC50: > 10 µM
[2]
  IC50: > 10 µM
[3]
  IC50: > 10 µM
[8]
  IC50: > 10 µM
[9]
  IC50: > 10 µM

## CNC(=O)Oc1ccc2c(c1)C1(C)CC[N+](C)(C)C1N2C (single isomer, unassigned) [YU-117, methosulfate of (-)physostigmine]
[1]; [15]
  IC50: 0.0371 ± 0.0066 µM
[2]; [16]
  IC50: 0.0283 ± 0.0037 µM
[3]; [17]
  IC50: 0.0294 ± 0.0052 µM
[9]; [14]
  IC50: 0.0335 ± 0.0006 µM
[5]
  specificity acetyl- versus butyryl-cholinesterase: more potent against acetylcholinesterase than against butyrylcholinesterase
[6]
  antiacetylcholinesterase potency in words: as potent against acetylcholinesterase as physostigmine itself

## C=CCN1CC[C@@]2(C)c3cc(OC(=O)NC)ccc3N(C)[C@@H]12 [YU-110, N--allyl physostigmine]
[7]
  IC50: 0.0156 ± 0.0069 µM
[8]
  IC50: 0.00265 ± 0.00201 µM
[5]
  specificity acetyl- versus butyryl-cholinesterase: equipotent versus both acetyl- and butyryl-cholinesterase
[6]
  antiacetylcholinesterase potency in words: as potent against acetylcholinesterase as physostigmine itself

## CC(C)NP(=O)(NC(C)C)OP(=O)(NC(C)C)NC(C)C [iso-OMPA, reference compound]
[9]
  IC50: > 1000 µM

## CN1CC[C@@]2(C)c3cc(O)ccc3N(C)[C@@H]12 (relative stereo) [(+/-)eseroline, reference compound]
[7]
  IC50: > 10 µM
[2]
  IC50: > 10 µM
[3]
  IC50: > 10 µM
[8]
  IC50: > 10 µM
[9]
  IC50: > 10 µM

## CNC(=O)Oc1ccc2c(c1)[C@]1(C)CCN(C)[C@@H]1N2C [(-) physo, (-)-physostigmine]
[11]
  properties at the neuromuscular AChR: blocking as well as agonist properties

## CCCCCCCCNC(=O)Oc1ccc2c(c1)[C@]1(C)CCN(C)[C@@H]1N2C [YU-71, eseroline octylcarbamate]
[7]
  IC50: 0.0087 ± 0.0037 µM
[8]
  IC50: 0.0036 ± 0.001 µM
